Assay results as given in ChEMBL document CHEMBL1131823, “Triterpene and diterpene inhibitors of pyruvate dehydrogenase kinase (PDK)” (Bioorg Med Chem Lett, 1999).

What was measured:
[1] = biological target: Pyruvate dehydrogenase kinase (Homo sapiens, UniProt Q15119+Q15120+Q16654+Q15118); assay: In vitro inhibitory activity against pyruvate dehydrogenase kinase was determined; assay type: protein assay
[2] = tested on: Mus musculus; assay: In vivo activity in a diabetic mouse at a dose of 100 umol/kg/day on day 3 after 2 hr; assay type: functional
[3] = tested on: Mus musculus; assay: In vivo activity in a diabetic mouse at a dose of 100 umol/kg/day on day 3 after 4 hr; assay type: functional
[4] = tested on: Mus musculus; assay: In vivo activity in a diabetic mouse at a dose of 100 umol/kg/day on day1 after 4 hr; assay type: functional
[5] = tested on: Mus musculus; assay: In vivo activity in a diabetic mouse at a dose of 100 umol/kg/day on day1 after 2 hr; assay type: functional
[6] = organism: Homo sapiens; assay: In vitro effective concentration in normal human dermal fibroblasts; Inactive; assay type: functional
[7] = tested on: Mus musculus; assay: In vivo activity in a diabetic mouse at a dose of 100 umol/kg/day on day1 after 6 hr; assay type: functional
[8] = tested on: Mus musculus; assay: In vivo activity in a diabetic mouse at a dose of 100 umol/kg/day on day 3 after 6 hr; assay type: functional
[9] = tested on: Mus musculus; assay: In vivo activity in a diabetic mouse at a dose of 30 umol/kg/day on day1 after 6 hr; assay type: functional
[10] = tested on: Mus musculus; assay: In vivo activity in a diabetic mouse at a dose of 300 umol/kg/day on day1 after 4 hr; assay type: functional
[11] = tested on: Rattus norvegicus; assay: Effect on blood glucose level after 2 hours of oral administration of compound at a dose of 300 umol/kg; assay type: functional
[12] = tested on: Rattus norvegicus; assay: Effect on blood lactate level after 4 hours of oral administration of compound at a dose of 300 umol/kg; assay type: functional
[13] = tested on: Mus musculus; assay: In vivo activity in a diabetic mouse at a dose of 300 umol/kg/day on day1 after 2 hr; assay type: functional
[14] = tested on: Rattus norvegicus; assay: Effect on blood lactate level after 2 hours of oral administration of compound at a dose of 300 umol/kg; assay type: functional
[15] = tested on: Mus musculus; assay: In vivo activity in a diabetic mouse at a dose of 30 umol/kg/day on day1 after 2 hr; assay type: functional
[16] = tested on: Mus musculus; assay: In vivo activity in a diabetic mouse at a dose of 30 umol/kg/day on day 3 after 4 hr; assay type: functional
[17] = tested on: Mus musculus; assay: In vivo activity in a diabetic mouse at a dose of 30 umol/kg/day on day 3 after 2 hr; assay type: functional
[18] = tested on: Mus musculus; assay: In vivo activity in a diabetic mouse at a dose of 30 umol/kg/day on day 3 after 6 hr; assay type: functional
[19] = tested on: Mus musculus; assay: In vivo activity in a diabetic mouse at a dose of 300 umol/kg/day on day 3 after 2 hr; assay type: functional
[20] = tested on: Mus musculus; assay: In vivo activity in a diabetic mouse at a dose of 300 umol/kg/day on day 3 after 6 hr; assay type: functional
[21] = tested on: Mus musculus; assay: In vivo activity in a diabetic mouse at a dose of 30 umol/kg/day on day1 after 4 hr; assay type: functional
[22] = tested on: Rattus norvegicus; assay: Effect on blood glucose level after 4 hours of oral administration of compound at a dose of 300 umol/kg; assay type: functional
[23] = In vitro effective concentration in normal human dermal fibroblasts; assay type: functional
[24] = tested on: Rattus norvegicus; assay: Effect on blood glucose level after 0 hour of oral administration of compound at a dose of 300 umol/kg; assay type: functional
[25] = tested on: Mus musculus; assay: In vivo activity in a diabetic mouse at a dose of 300 umol/kg/day on day 3 after 4 hr; assay type: functional
[26] = tested on: Rattus norvegicus; assay: Effect on blood lactate level after 0 hour of oral administration of compound at a dose of 300 umol/kg; assay type: functional
[27] = tested on: Mus musculus; assay: In vivo activity in a diabetic mouse at a dose of 300 umol/kg/day on day1 after 6 hr; assay type: functional
[28] = tested on: Mus musculus; assay: In vivo activity in a diabetic mouse at a dose of 200 umol/kg/day on day1 after 4 hr; assay type: functional
[29] = tested on: Mus musculus; assay: In vivo activity in a diabetic mouse at a dose of 200 umol/kg/day on day 3 after 4 hr; assay type: functional
[30] = tested on: Mus musculus; assay: In vivo activity in a diabetic mouse at a dose of 200 umol/kg/day on day 3 after 2 hr; assay type: functional
[31] = tested on: Mus musculus; assay: In vivo activity in a diabetic mouse at a dose of 200 umol/kg/day on day1 after 2 hr; assay type: functional
[32] = tested on: Mus musculus; assay: In vivo activity in a diabetic mouse at a dose of 200 umol/kg/day on day1 after 6 hr; assay type: functional
[33] = tested on: Mus musculus; assay: In vivo activity in a diabetic mouse at a dose of 200 umol/kg/day on day 3 after 6 hr; assay type: functional
[34] = tested on: Mus musculus; assay: In vivo activity in a diabetic mouse at a dose of 1000 umol/kg/day on day 3 after 4 hr; assay type: functional
[35] = tested on: Mus musculus; assay: In vivo activity in a diabetic mouse at a dose of 1000 umol/kg/day on day1 after 4 hr; assay type: functional
[36] = tested on: Mus musculus; assay: In vivo activity in a diabetic mouse at a dose of 1000 umol/kg/day on day 3 after 6 hr; assay type: functional
[37] = tested on: Mus musculus; assay: In vivo activity in a diabetic mouse at a dose of 1000 umol/kg/day on day1 after 2 hours; assay type: functional
[38] = tested on: Mus musculus; assay: In vivo activity in a diabetic mouse at a dose of 1000 umol/kg/day on day1 after 6 hr; assay type: functional
[39] = tested on: Mus musculus; assay: In vivo activity in a diabetic mouse at a dose of 1000 umol/kg/day on day 3 after 2 hr; assay type: functional

Work on C[C@]12CC[C@H]3[C@@H](CCC4=C/C(=N/O)CC[C@@H]43)[C@@H]1CC[C@@H]2O yielded an IC50 [1] of 5.4 µM.

For C[C@]12CC/C(=N\O)C[C@@H]1CC[C@@H]1[C@@H]2CC[C@]2(C)[C@@H](O)CC[C@@H]12, the IC50 [1] was 51 µM.

For CC(C)C1=CC2=CC[C@H]3[C@](C)(CO)CCC[C@]3(C)[C@H]2CC1, the Efficacy [2] was 7%, the Efficacy [3] was 10% and the IC50 [1] was ~ 10 uM. The Efficacy [4] was -8%, the Efficacy [5] was 7% and the EC50 [6] was “Not Active”. It also gave an Efficacy [7] of 19% and an Efficacy [8] of 24%.

C[C@]12CC[C@H]3[C@@H](CCC4=C/C(=N/CC(=O)O)CC[C@@H]43)[C@@H]1CC[C@@H]2O showed an IC50 [1] of 56 µM.

In the case of C#C[C@]1(O)CC[C@H]2[C@@H]3CCC4=C/C(=N/O)CC[C@@H]4[C@H]3CC[C@@]21C, the IC50 [1] is reported as 5.8 µM.

Compound C=C=C[C@]1(O)CC[C@H]2[C@@H]3CCC4=C/C(=N/O)CC[C@@H]4[C@H]3CC[C@@]21C has an Efficacy [9] of 2%, an Efficacy [10] of 19% and a Blood glucose [11] of 49.1 mg/dL. For the same compound, the Blood lactate [12] was 0.79 mM, the Efficacy [13] was -2% and the Efficacy [2] was 73%. For the same compound, the Efficacy [3] was 70%, the IC50 [1] was 0.84 µM and the Blood lactate [14] was 0.8 mM. For the same compound, the Efficacy [15] was -6%, the Efficacy [16] was 43% and the Efficacy [4] was 4%. For the same compound, the Efficacy [17] was 38%, the Efficacy [5] was 3% and the Efficacy [18] was -6%. For the same compound, the Efficacy [19] was 92%, the Efficacy [20] was 75% and the EC50 [6] was “Not Active”. It also gave an Efficacy [21] of -3%, a Blood glucose [22] of 49.3 mg/dL and an EC50 [23] of 1.7 µM. It also gave a Blood glucose [24] of 49.5 mg/dL, an Efficacy [25] of 83% and a Blood lactate [26] of 1.01 mM. It also gave an Efficacy [7] of 26%, an Efficacy [27] of 51% and an Efficacy [8] of 47%.

CC(C)c1ccc2c(c1)CC[C@H]1[C@](C)(CN)CCC[C@]21C showed an Efficacy [9] of 11%, an Efficacy [10] of 69% and an Efficacy [13] of 68%. It also gave an Efficacy [2] of 26%, an Efficacy [3] of 36% and an IC50 [1] of 9.5 µM. The Efficacy [15] was 18%, the Efficacy [16] was 2% and the Efficacy [4] was 28%. The Efficacy [17] was -4%, the Efficacy [5] was 30% and the Efficacy [18] was 19%. The Efficacy [19] was 85%, the Efficacy [20] was 90% and the EC50 [6] was “Not Active”. For the same compound, the Efficacy [21] was -1%, the Efficacy [25] was 86% and the Efficacy [7] was 22%. For the same compound, the Efficacy [27] was 65% and the Efficacy [8] was 47%.

For CC(C)C1=CC2=CC[C@@H]3[C@](C)(CCC[C@@]3(C)C(N)=O)[C@H]2CC1, the Efficacy [28] was -2%, the Efficacy [29] was 9% and the IC50 [1] was 6.7 µM. For the same compound, the Efficacy [30] was 13%, the Efficacy [31] was 4% and the Efficacy [32] was 16%. For the same compound, the EC50 [6] was “Not Active” and the Efficacy [33] was 16%.

C[C@]12CC/C(=N\O)C[C@H]1CC[C@@H]1[C@@H]2CC[C@]2(C)[C@@H](O)CC[C@@H]12 showed an IC50 [1] of 36 µM.

Compound CC(C)C1=CC2=CC[C@@H]3[C@](C)(CCC[C@@]3(C)C(=O)O)[C@H]2CC1 [ABIETIC ACID] has an Efficacy [28] of 25%, an Efficacy [29] of 22% and an IC50 [1] of 20 µM. The Efficacy [30] was 24%, the Efficacy [31] was 45% and the Efficacy [32] was 42%. For the same compound, the EC50 [6] was “Not Active” and the Efficacy [33] was 29%.

Compound O=C(O)C(Cl)Cl [DICHLOROACETIC ACID] has an Efficacy [34] of 50%, an Efficacy [35] of 39% and an Efficacy [36] of 56%. It also gave an Efficacy [37] of 59%, an Efficacy [38] of 29% and an Efficacy [39] of 52%. It also gave an EC50 [23] of 100 µM.

In the case of C[C@]12CC[C@H]3[C@@H](CCC4=CC(=O)CC[C@@H]43)[C@@H]1CC[C@@H]2O [NANDROLONE], the IC50 [1] is reported as 120 µM.
